Data set [1] relates to C. elegans wild-type strain N2. Put plainly: Same pumping assay format using C. elegans wild-type strain N2. It counts as in vivo. As to conditions: read-out: EC50 (μM) N2 worm. From the text:
The screening of the compounds according to the present invention has been performed in the C. elegans based high-throughput screen for Kv4.3 modulators described above. The method for testing the activity on human Kv4.3 of the compounds according to the invention with C. elegans strains expressing human Kv4.3 for their activity is the same as the method described in WO 03/097682. The method for testing the compounds on wild-type C. elegans strains not expressing human Kv4.3 is the same as the method described in WO 00/63427. Briefly, UG1755 animals have been grown in large numbers and staged young adults (no or only few eggs inside the uterus) have been harvested on the day of screening. Approximately 125 animals in 80 μl buffer have been dispensed per well of a “U” shaped 96-well compound plate. The compound plate contained already compound material at a final concentration of 30 μM in 0.3% DMSO. […] After another four hours of incubation at 20° C., the drinking of C. elegans animals (or the “reaction” as measured by the uptake of CAM) has been stopped by adding 10 μl of a 60 μM ivermectin solution. The fluorescence intensity (counts per second) has been measured 40 minutes after adding ivermectin with the Wallac plate reader at a wavelength of 535 nm (after excitation at 485 nm). […]

For the next data set, the target named is T1, human Kv4.3 (Homo sapiens, UniProt Q9UK17).
T1 construct: expressed in transfected cells; host or cells: transgenic C. elegans strain UG1755 (plasmid pGV8 integrated; expression in the pharynx)
T1 sequence (Q9UK17 1-655): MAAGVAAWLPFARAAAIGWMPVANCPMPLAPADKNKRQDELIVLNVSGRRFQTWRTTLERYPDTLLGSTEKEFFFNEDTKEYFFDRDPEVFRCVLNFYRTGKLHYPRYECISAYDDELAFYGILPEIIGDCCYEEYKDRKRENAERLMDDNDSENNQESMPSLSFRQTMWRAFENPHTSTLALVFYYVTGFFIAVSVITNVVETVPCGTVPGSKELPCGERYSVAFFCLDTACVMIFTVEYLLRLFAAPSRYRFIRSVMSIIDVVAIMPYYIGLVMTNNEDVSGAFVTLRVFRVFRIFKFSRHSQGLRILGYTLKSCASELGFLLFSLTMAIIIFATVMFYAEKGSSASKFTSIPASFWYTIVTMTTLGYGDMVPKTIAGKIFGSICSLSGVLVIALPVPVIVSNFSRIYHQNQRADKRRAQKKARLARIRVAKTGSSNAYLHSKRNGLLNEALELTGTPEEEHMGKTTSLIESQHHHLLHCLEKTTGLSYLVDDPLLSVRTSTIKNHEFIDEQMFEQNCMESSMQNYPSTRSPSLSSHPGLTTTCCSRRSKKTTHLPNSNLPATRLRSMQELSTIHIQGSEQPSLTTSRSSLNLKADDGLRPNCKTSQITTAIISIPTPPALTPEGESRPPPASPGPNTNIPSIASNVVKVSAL
Put plainly: C. elegans based high-throughput screen for Kv4.3 modulators (pharynx pumping, Calcein AM uptake), strain UG1755. The settings on record: for Ratio N2/Kv4.3: EC50 on N2 divided by EC50 on the Kv4.3 expressing strain, cut-off 1.8; for EC50: transgenic strain expressing human Kv4.3, read-out: EC50 (μM) Kv4.3 worm. It counts as in vivo. An excerpt:
A C. elegans based high-throughput screen for Kv4.3 modulators has been used to establish an in vivo SAR (structure-activity relationships: the effect of chemical structure on biological activity) on Kv4.3 for the compounds according to the present invention.
This assay has employed a stable transgenic C. elegans strain that functionally expressed human Kv4.3 in the pharynx and a visible selection GFP maker in body-wall muscle.
The method to describe the construction of a transgenic C. elegans strain expressing human Kv4.3 has been described in WO 03/097682. Briefly, the actual used strain UG1755 has been generated by microinjection into the gonad of a wild-type strain N2 with a mix of 5 ng/μl plasmid pGV8 (human Kv4.3), 20 ng/μl pDW2821 (GFP-marker) and 40 ng/μl genomic C. elegans DNA. Transgenic animals have been isolated and submitted to integration of the extra-chromosomal array into the genome of C. elegans. A line with 50% transmission of the functional expressed human Kv4.3 has been mutagenized with gamma irradiation using a Cobalt source. About 12000 F2 animals have been singled out and their progeny has been screened for the 100% transmission of the GFP marker. Lines with 100% transmission of GFP have been considered as potentially integrated. These lines have been further tested and out-crossed with N2 strain two-times. All lines obtained have been tested for viability, GFP and human Kv4.3 expression. At the end of a selection process, UG1755 was identified as most suitable C. elegans strain amenable to high throughput screening (HTS). This stable strain has expressed human Kv4.3 as confirmed by electropharyngeograms (EPG) analysis. The method has been described in WO 03/097682. Briefly, dissected pharynxes of UG1755 C. elegans animals have been prepared and Electropharyngeograms (EPGs) have been recorded using an Axopatch-1D amplifier (Axon instruments). Pharynxes have been equilibrated for about 2 minutes in the bath solution (Dent's saline with 0.5% DMSO) until stable EPG recordings have been seen. Compound solution (DMSO or 100 μM Flecamide) has been added to the bath solution. The number of ultra short EPGs (10-20 ms) and normal EPGs (100-200 ms) has been analyzed and given as ratio in percentage. […] In addition standard qRT-PCR confirmed the presence of the human Kv4.3 transgene in UG1755 as well as human Kv4.3 protein has been detected with the human Kv4.3 antibody P 0358 in the pharynx of UG1755 animals. […]
Introducing the human Kv4.3 channel into the C. elegans pharynx influences the C. elegans action potential in a characteristic fashion. […] The pumping end-point can be technically translated into a high-throughput read-out by the use of a pro-fluorescent dye. […]

The next data set deals with hERG potassium channel (Homo sapiens, UniProt Q12809). Put plainly: Whole cell patch clamp, HEK 293 T-REx HERG cells. As to conditions: 10 μM.
Chain of hERG potassium channel (Q12809 whole entry): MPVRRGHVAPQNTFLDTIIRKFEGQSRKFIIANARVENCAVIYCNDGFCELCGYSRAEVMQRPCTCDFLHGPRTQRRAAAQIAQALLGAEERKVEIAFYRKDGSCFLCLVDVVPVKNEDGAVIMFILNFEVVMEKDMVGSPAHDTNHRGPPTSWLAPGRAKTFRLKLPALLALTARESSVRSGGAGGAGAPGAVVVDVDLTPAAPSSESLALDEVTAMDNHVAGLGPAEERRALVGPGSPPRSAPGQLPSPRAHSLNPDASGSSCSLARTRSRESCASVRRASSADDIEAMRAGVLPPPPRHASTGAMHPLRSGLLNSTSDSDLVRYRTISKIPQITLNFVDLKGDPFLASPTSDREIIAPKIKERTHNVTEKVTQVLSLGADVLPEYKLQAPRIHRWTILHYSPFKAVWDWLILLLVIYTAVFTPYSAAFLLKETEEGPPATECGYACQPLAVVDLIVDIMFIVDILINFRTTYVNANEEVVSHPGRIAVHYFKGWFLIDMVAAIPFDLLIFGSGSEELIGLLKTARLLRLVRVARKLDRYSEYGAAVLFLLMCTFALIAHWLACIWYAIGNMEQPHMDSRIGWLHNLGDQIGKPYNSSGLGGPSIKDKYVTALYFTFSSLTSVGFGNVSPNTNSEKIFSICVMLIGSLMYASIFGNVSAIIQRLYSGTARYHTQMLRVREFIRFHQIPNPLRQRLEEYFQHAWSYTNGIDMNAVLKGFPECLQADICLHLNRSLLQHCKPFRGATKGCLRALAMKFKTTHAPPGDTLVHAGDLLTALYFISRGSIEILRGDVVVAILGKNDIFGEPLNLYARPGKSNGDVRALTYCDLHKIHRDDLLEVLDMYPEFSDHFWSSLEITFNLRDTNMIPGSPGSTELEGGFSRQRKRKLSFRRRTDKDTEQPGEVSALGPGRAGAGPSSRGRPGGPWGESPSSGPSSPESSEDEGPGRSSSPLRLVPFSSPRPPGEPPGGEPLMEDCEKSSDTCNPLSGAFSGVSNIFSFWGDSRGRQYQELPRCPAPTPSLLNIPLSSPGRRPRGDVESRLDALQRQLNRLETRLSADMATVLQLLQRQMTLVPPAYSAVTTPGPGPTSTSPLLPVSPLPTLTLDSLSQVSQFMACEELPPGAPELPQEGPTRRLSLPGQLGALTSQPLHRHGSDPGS

Here are results for four compounds from patent publication US20080039442A1, “Compounds With Kv4 Ion Channel Activity” (Devgen NV, priority 2004, published 2008).

A word on the EC50: it is the concentration at which the effect is half-maximal. By melting point is commonly meant the temperature, or range, at which the solid turns liquid.

Read-outs that look alike come from different tables or passages of the source.

From the text for hERG potassium channel: For this experiment HEK 293 T-REx HERG cells (#23) were used. This cell line made by IonGate is characterized by the inducible expression of the hERG gene. The T-REx™ System (Invitrogen, Karlsruhe, Germany) is a tetracycline-regulated mammalian expression system that uses regulatory elements from the E. coli Tn10-encoded tetracycline (Tet) resistance operon. In the absence of Tet the expression is repressed. Tetracycline regulation in the T-REx™ System is based on the binding of tetracycline to the Tet repressor and derepression of the promoter controlling expression of the hERG gene. Addition of Tet to the cell culture media results in expression of the hERG potassium channel.
To construct the HEK 293 T-REx HERG cell line, the hERG gene was ligated into the inducible expression vector pcDNA4/TO (→pc4TO-HERG) and transfected into HEK 293 T-REx cells (this cell line stably expresses the Tet repressor and was purchased at Invitrogen). Stable cell clones were isolated after selection with Blasticidin (5 μg/ml) and Zeocin™ (300 μg/ml). The clones were electrophysiological characterized after induction with 1 μg/ml Tet.
Experiments were performed using the patch clamp set-up. Technical equipment needed for manipulation of the cells was placed on a vibration-isolated table and shielded with a Faraday cage to minimize electrical noise. The amplifier and control system were placed in a rack outside the Faraday cage. The system consisted of an EPC9 or EPC10 patch clamp amplifier (HEKA, Lambrecht, Germany), and the perfusion system DADVC8 (ALA Scientific, New York, USA) controlled by the Pulse software package (HEKA, Lambrecht, Germany) installed on a personal computer.
The cells used for this experiment were kept in continuous culture under standard conditions (37° C., air supplemented with 5% CO2). The HEK 293 T-REx HERG cells were kept in minimal essential medium (MEM) supplemented with 100 U/ml Penicillin, 100 μg/ml Streptomycin, 10% fetal calf serum (FCS), 1% non-essential amino acids (NEAA), 2.5 μg/ml amphotericin, 300 μg/ml Zeocin™ and 5 μg/ml Blasticidin. Cells were passed every 3-4 days after detachment using a Trypsin solution. The quality of the cultured cells was guaranteed by vitality and contamination tests.
At least 18 hours prior to electrophysiological experiments the cells were detached by application of iced PBS (phosphate buffered saline) or Trypsin and replated on cover slips. 1 μg/ml Tet was added to the cells to induce hERG expression.
Activity of the cardiac hERG channel was investigated using the patch clamp technique in its whole cell mode. This means that the current needed for clamping the whole cell expressing the K^+-channel protein to a specific potential was measured. The pipettes used for patch clamping were made of borosilicate glass. Measurements were performed at room temperature (20-25° C.). In each experiment (i.e. each cell) only one concentration of the compound was investigated—no cumulative dosages were performed. Each cell acted as its own control. The effect of the compounds on hERG mediated currents was investigated at one concentration (10 μM) with two replicates each (c=1, n=2).
Between voltage pulses the cell was clamped to a holding potential of −80 mV (inside).
(b) and (c) were used to characterize the properties of the hERG channel and to check the quality of the individual patch clamp experiment (voltage control). Each test protocol consisted of 6 segments.

On to `C[C@@H](NC(=O)c1cc2cc(Cl)ccc2o1)c1ccc([N+](=O)[O-])cc1` [Compound 1, 5-chloro-benzofuran-2-carboxylic acid [(R)-1-(4-nitro-phenyl)-ethyl]-amide], for which, in data set [1] (Caenorhabditis elegans), the EC50 was more than 30 µM. Moreover, on human Kv4.3, the “Ratio N2/Kv4.3” value is given as more than 4.9 and the EC50 was 6.1 µM.
Consider “5-chloro-benzofuran-2- carboxylic acid [3- (10,11-dihydro- dibenzo[a,d]cyclohepten- 5-ylidene)-propyl]- methyl-amide [Compound 5]”, for which the results for the EC50 (in data set [1]; on human Kv4.3) were 24 µM and 4.2 µM, respectively. Moreover, the “Ratio N2/Kv4.3” value at human Kv4.3 is on record as 5.7.
Turning to `O=C(NCc1ccc(OC(F)(F)F)cc1)c1cc2cc(Cl)ccc2o1` [Compound 89, 5-chloro-benzofuran-2-carboxylic acid 4-trifluoromethoxy-benzylamide], the melting point fell in the range of 101.3 to 106.3 °C. Also, the “hERG (%)” value at hERG potassium channel is 39%.
For `Cc1c(C(=O)NCc2ccc(F)c(C(F)(F)F)c2)sc2ccc(Cl)cc12` [Compound 107, 5-chloro-3-methyl-benzo[b]thiophene-2-carboxylic acid 4-fluoro-3-trifluoromethyl-benzylamide], the melting point lay within 134 to 136.5 °C. In addition, the “hERG (%)” value at hERG potassium channel was 38%.
